The values that follow come from a melting point compilation (Tetko et al.; mined from patent text by program, amines drawn as free bases though some values may be those of a salt).

The structures appear in SMILES notation.

Broadly, the melting point is the temperature, or range, at which the solid turns liquid.

The molecule `CC1(C)CCC(C)(C)c2cc(NC(=O)c3ccc(CO)cc3)ccc21` registered a melting point of 161 to 162 °C.
The molecule `C[Si](C)(C)CCCCOC(=O)CSc1cc(Oc2ccc(C(F)(F)F)cc2Cl)ccc1[N+](=O)[O-]` displayed a melting point of 78 to 81 °C.
Take `COc1ccc(-c2cc(Cc3ccc(OC)c(OC4CCCC4)c3)cn2-c2ccc(S(N)(=O)=O)cc2)cc1`: the melting point was in the range of 81 to 84 °C.
Consider `NCCNC(=O)CN1CCC(O)C1=O` (centres undefined), for which the melting point is 110 to 112 °C.
With `CC(C)n1nc(-c2c(NCc3cccnc3)nc(N)nc2-c2ccccc2)ccc1=O`, the melting point was 215 to 216 °C.
`CN(C)C(=O)[C@@H]1CCCN1C(=O)OCc1ccccc1` yielded a melting point of 66 to 67 °C.
For `CN(C)C(=O)N(C)c1nc2cc(C(C)(C)C)ccc2s1` the value was 107 to 108 °C.
The figure for `O=C(c1ccc(Br)cc1)N1CC(=O)N(CCc2ccccc2)C(=O)C1` is 110 to 112 °C; for `O=Cc1ccc2c(n1)C(=O)C(NC(=O)CCl)=CC2=O` it is 190 to 192 °C; for `CCCOC(=O)c1ccc2c3cccc4cccc(c5ccc(C(=O)OCCC)c1c25)c43` it is 253 °C.
As to `Cc1ccc(C(=O)NC(NC(=S)Nc2ccc(Cl)nc2)C(F)(F)F)cc1` (centres undefined), the melting point fell in the range of 199 to 200 °C.
The molecule `C#CCN(c1cc(-c2ccnc3c(C(=O)c4cccs4)cnn23)ccc1F)S(C)(=O)=O` had a melting point of 149 to 153 °C.
In turn, `CC(=O)N(C(C)=O)c1c(C#N)cnn1-c1ccc(Cl)c(Cl)c1Cl` returned a melting point of 163 to 165 °C.
For `CC1(C)OC(c2ccccc2)CN1C(=O)C(Cl)Cl` (centres undefined) the value was 99.5 to 100 °C.
As for `Cc1cc(SCC#Cc2ccccc2)ccc1OCC(=O)O`, the melting point lay within 90 to 92 °C.
In turn, `C#CCNC(=O)/C=C\SC(=O)c1ccccc1` registered a melting point of 131 to 134 °C.
For `COCc1nc2cccc(C(=O)OC)c2n1Cc1ccc(-c2ccccc2-c2nnn[nH]2)cc1` the value was 191 to 194 °C; for `CC(=O)Nc1cc(F)cc2c1OCCC21SC(=O)NC1=O` (centres undefined), 278 to 280 °C; for `O=C(C(Cl)Cl)N1CCC2(CC1)OCCO2`, 102 °C.
Molecule `CC(C)CN(CCc1c[nH]c2ccccc12)C(=O)CCCC(=O)O` came in with a melting point of 140 to 141 °C.
For `CCCCOc1ccc(C(=O)O)c(OC)c1` the value was 94 to 96 °C.
The figure for `O=C(N[C@@H](CO)C(=O)N1CC(C(=O)O)C1)OCc1ccccc1` is 138 to 143 °C.
On to `N#Cc1cnc2cc(Br)sc2c1Nc1ccc(Oc2ccccc2)cc1`, for which the melting point was 248 to 250 °C.
`CCN1C(=O)Cc2cc3occc3cc21` showed a melting point of 112 to 113 °C.
`COC(=O)CC[C@H](NC(=O)c1ccc(C#Cn2cnc3nc(C)c(OC(=O)C(C)(C)C)c-3c2O)cc1)C(=O)OC` returned a melting point of 163 °C.
For `CC(C)CC(NC(c1ccc(-c2ccc(S(C)(=O)=O)cc2)cc1)C(F)(F)F)C(=O)NCC#N` (centres undefined) the value was 140 °C; for `CC(C)(C)Nc1cc(Cl)nc(N2CCCC2)n1`, 148 to 150 °C.
With `Brc1oc2ccc(Cc3nnn[nH]3)cc2c1-c1ccccc1`, the melting point lay within 215 to 217 °C.
For `CCOC(=O)c1c(O)c2ccc(C)nc2[nH]c1=O` the value was 190 to 193 °C; for `CC(C)N1C(=O)C(NC(=O)Cc2cc(Cl)cc(Cl)c2)C(=O)N(CC(F)(F)F)c2ccccc21` (centres undefined), 185 to 186 °C.
For `COc1ccc(C2CNC(=O)N2C)cc1NC1CC2CCC1C2` (centres undefined) the value was 171 to 174 °C; for `Cc1cccc(-c2[nH]nc(N3CCN(C)CC3)c2-c2ccncc2)c1`, 262 °C.
Molecule `CCNC(=O)[C@@H]1CCCN1C(=O)[C@H](C)NC(=O)C1CCCCC1` registered a melting point of 190 to 192 °C.
For `COc1ccc(CCNC(C)(C)CO)cc1` the value was 114 to 115 °C; for `Cc1cc(CCCOc2c(C)cc(C#N)cc2C)on1`, 46 to 48 °C; for `Cc1cc2[nH]c(=O)n(S(=O)(=O)c3ccc(Cl)cc3)c(=O)c2cc1C`, 221 to 222 °C.
The figure for `COC(=O)C(=O)c1ccc(OCCOc2cccc(F)c2)cc1` is 68 to 69 °C.
In turn, `O=C(Nc1cn2cc(Cl)ccc2n1)c1ccc(-n2cccn2)cc1` registered a melting point of 287 to 289 °C.
The figure for `O=C(OC1CCN(c2ncc(-c3ccccc3Cl)cn2)CC1)N1CCC(O)CC1` is 124 to 126 °C; for `CC(=O)Nc1scc(C)c1C(=O)c1ccccc1Cl` it is 148 to 149 °C.
For `COC(=O)c1ccc(-c2nnc(-c3ccc(C(F)(F)F)cc3)s2)cc1` the value was 218 to 219 °C; for `N#Cc1ccc(Oc2cncc3sc(C(N)=O)cc23)cc1`, 255 to 257 °C; for `COC(=O)C1CCCN1S(N)(=O)=O` (centres undefined), 166 to 168 °C.
`CC1NC(=O)NN=C1c1ccccc1O` (centres undefined) gave a melting point of 257 to 261 °C.
For `CCOC(=O)c1cccn2c(C#N)c(-c3ccccc3)nc12` the value was 87 to 89 °C; for `Clc1cc(Oc2cc(Cl)nc(-c3ccc(Cl)s3)n2)ccn1`, 154 to 156 °C.
In turn, `CNC(=O)Nc1nc(C(C)c2ccc(-c3ccccc3)c(F)c2)cs1` (centres undefined) came in with a melting point of 208 to 209 °C.
Turning to `CNS(=O)(=O)c1ccc(C=C2C(C)=C(CC(=O)OC)c3cc(OC)ccc32)cc1`, the melting point lay in the range of 167 to 169 °C.
The molecule `Cc1ccc(O)c2c1N(Cc1ccccc1)C(=O)C2(C)C` registered a melting point of 128 to 129 °C.
For `CC(=O)Nc1ccc2c(c1)cc(C(=O)c1ccc(F)cc1)n2C` the value was 213 to 215 °C.
Turning to `O=C1c2c(Cl)cccc2-n2cnc(-c3nnc(-c4ccccc4)o3)c2[C@@H]2CCCN12`, the melting point was in the range of 221 to 222 °C.
For `Cc1cccc(C(=O)NCN2CCN(c3ccccc3C#N)CC2)c1` the value was 131 to 133 °C; for `Cc1ccc2cc(C(=O)O)oc2c1C`, 235 to 237 °C.
The figure for `O=C(Nc1cccc2c(N3CCN(Cc4ccccc4)C3=O)ccnc12)c1c(Cl)cccc1Cl` is 178 to 191 °C; for `CN1Cc2c(-c3nc(C4CC4)no3)ncn2-c2ccc(F)cc2C1=O` it is 216 to 217 °C; for `O=c1[nH]cccc1-c1cccnc1` it is 189 to 192 °C.
For `CC(C)(C)Sc1cccc(CCC(O)c2ccccc2)c1NC(=O)CC1c2ccccc2Oc2ccccc21` (centres undefined) the value was 145 to 147 °C; for `C#Cc1cccc(Oc2ccc([N+](=O)[O-])c([N+](=O)[O-])c2)c1`, 68 to 69 °C; for `Cc1c(C2=CCC(Cc3ccccc3)(N(C)C)CC2)[nH]c2ccc(C(F)(F)F)cc12` (centres undefined), 119 to 120 °C.
`O=C1N=NC(=O)c2c1[nH]c1cc(Br)ccc21` came in with a melting point of 260 °C.
The figure for `CC(=O)SCC(Cc1ccccc1)C(=O)Nc1cc(C(=O)O)cc(C(F)(F)F)c1` (centres undefined) is 62 to 67 °C.
For `CCNc1ccc(C(=O)Nc2ccc3ccc(OC)nc3n2)cc1`, the melting point was found to be 134 °C.
In the case of `Cc1cc(Cl)c([N+](=O)[O-])c(=O)[nH]1`, the melting point is 225 °C.
In the case of `O=C(NN=Cc1cccc(C(F)(F)F)c1Cl)c1ccc(O)cc1`, the melting point amounted to 262 °C.
The molecule `COC(=O)c1cc(Br)cc(Cl)c1NC(C)=O` had a melting point of 152 to 153 °C.
For `CN(C)Cc1ccc(CSCCNC2=NS(=O)(=O)N=C2N2CCOCC2)o1`, the melting point was 122 to 127 °C.
With `COCC(=O)OC1(C(=O)CO)CCC2C3CCC4=CC(=O)CCC4(C)C3C(O)CC21C` (centres undefined), the melting point stood at 185 °C.
With `O=C(Nc1ccccc1)Nc1ccc(F)c([N+](=O)[O-])c1`, the melting point was in the range of 200 to 202 °C.
For `Nc1nc(N)c2c(CCc3ccc(C(=O)N[C@@H](CCC(=O)O)C(=O)O)cc3)cnc-2[nH]1` the value was 258 to 262 °C.
For `CC(C)Oc1nc2cc(-n3ccc(=O)cc3)c([N+](=O)[O-])cc2nc1OC(C)C` the value was 217 to 219 °C; for `COC(=O)C(C)N(C(=O)CS)c1c(C)cccc1C` (centres undefined), 62.5 to 63 °C.
For `CCCc1[nH]c2cc(C(=O)OC)ccc2c1C(=O)C1CCC1` the value was 159 to 160 °C; for `c1ccc2c(c1)OP(N(C1CCCCC1)C1CCCCC1)c1ccccc1-2` (centres undefined), 162 °C.
Molecule `Cc1cc(F)ccc1-c1nc(NC(C)(C)CO)nc2c1ccc(=O)n2-c1c(F)cccc1F` displayed a melting point of 99 to 105 °C.
For `CCOC(=O)c1c(C(F)(F)F)nc(C(F)F)c(C(=O)OC)c1NC1CC1` the value was 68 to 69.5 °C.
The molecule `O=S(=O)(Nc1ccccc1O)c1ccc(Cl)cc1` yielded a melting point of 82 °C.
The figure for `O=C(c1ccc(Br)s1)N(Cc1cccc(O)c1)C1CC1` is 128 °C; for `O=C(NC(=O)C(c1ccccc1)c1ccccc1)OCC(F)(F)F` it is 125 to 127 °C; for `CCOC(=O)COc1ccc(Cn2c(-c3ccc(OC)cc3)c(C)c3cc(OCc4ccccc4)ccc32)cc1` it is 90 to 96 °C.
For `CC1c2cccc3c2N(CC3)c2ccccc2N1C(=O)CN(C)Cc1ccccc1` (centres undefined) the value was 101 to 106 °C; for `CCOC(=O)C1=NN(c2cccc3ccccc23)C(C(=O)OCC)=NN1c1ccccc1`, 124 to 125 °C; for `O=S(=O)(Nc1cc(Cl)sc1Cl)c1cc(-c2ncc(C(F)(F)F)cc2Cl)ccc1Cl`, 106 to 108 °C.
For `CCOC(=O)CCCC(=O)c1ccc(Oc2ccccc2)cc1` the value was 61 to 62 °C; for `Cc1c(Sc2cccnn2)oc2ccc(Cl)cc12`, 131 to 134 °C; for `COC(=O)CCc1cc2nc(Cl)ccc2n1S(=O)(=O)c1ccc2nc(N)sc2c1`, 205 to 215 °C.
In turn, `COc1ccc(S(=O)(=O)N(CCNC(=O)NCc2ccccc2)c2ccc(C)cc2Cc2c(F)cccc2F)cc1OC` had a melting point of 100 °C.
For `Fc1c(Cl)cc(C(/C=C/c2ccc3[nH]ccc3c2)C(F)(F)F)cc1Cl` (centres undefined) the value was 133 to 139 °C; for `CCn1c(N)nc2cc(CN3CCN(C(c4ccccc4)c4ccccc4)CC3)ccc21`, 214 °C.
`Cc1ccc(-c2cc(NC(=O)C3Cc4ccccc4C3)n[nH]2)cc1` had a melting point of 220 to 225 °C.
